Assay results published in patent publication US20080051429A1, “USE OF 4-AMINO-PIPERIDINES FOR TREATING SLEEP DISORDERS” (priority 2006, published 2008).
Counter-ions that a name gives are not always drawn. Like-named read-outs stand apart in the source and are kept apart here.

Biological target: T1, 5-HT2A receptor (Homo sapiens, UniProt P28223)
T1 construct: expressed in transfected cells; host or cells: NIH3T3 cells, pSI expression vector
Assay: R-SAT functional receptor assay
Type: cell-based
Conditions: for Emax: 120 h
Procedure: The functional receptor assay, Receptor Selection and Amplification Technology (R-SAT), was used (with minor modifications from that previously described U.S. Pat. No. 5,707,798) to screen compounds for efficacy at the 5-HT2A receptor. Briefly, NIH3T3 cells were grown in 96 well tissue culture plates to 70-80% confluence. Cells were transfected for 12-16 hours with plasmid DNAs using superfect (Qiagen Inc.) as per manufacture's protocols. R-SAT's were generally performed with 50 ng/well of receptor and 20 ng/well of Beta-galactosidase plasmid DNA. All receptor and G-protein constructs used were in the pSI mammalian expression vector (Promega Inc) as described in U.S. Pat. No. 5,707,798. The 5HT2A receptor gene was amplified by nested PCR from brain cDNA using the oligodeoxynucleotides based on the published sequence (see Saltzman et. al. Biochem. Biophys. Res. Comm. 181:1469-78 (1991)). Large-scale transfections, cells were transfected for 12-16 hours, then trypsinized and frozen in DMSO. Frozen cells were later thawed, plated at 10,000-40,000 cells per well of a 96 well plate that contained drug. With both methods, cells were then grown in a humidified atmosphere with 5% ambient CO2 for five days. Media was then removed from the plates and marker gene activity was measured by the addition of the beta-galactosidase substrate ONPG (in PBS with 5% NP-40). The resulting colorimetric reaction was measured in a spectrophotometric plate reader (Titertek Inc.)at […]. All data were analyzed using the computer program XLFit (IDBSm). Efficacy is the percent maximal repression compared to repression by a control compound (ritanserin in the case of 5HT2A). pIC50 is the negative of the log(IC50), where IC50 is the calculated concentration in Molar that produces 50% maximal repression.
Briefly, the 5-HT2A receptor, and the alpha subunit of the guanine nucleotide binding protein Gq were transiently transfected into NIH3T3 cells and assayed using the functional receptor assay, Receptor Selection and Amplification Technology (R-SAT) essentially as disclosed in U.S. Pat. No. 5,707,798. Each compound was screened at seven serially diluted concentrations in triplicate. Data were analyzed using least squares fit analysis with GraphPad Prism (San Diego, Calif.), and are reported normalized to percent response.
R-SAT assays (as described in Example 42) were carried out with cells transfected with receptors (listed below) to determine the receptor selectivity profile for compound 26HCH16D. 5HT2A inverse agonist data (IC50 nM; % efficacy) were derived from detailed dose response curves (7 points in triplicate).
(§1) The functional receptor assay, Receptor Selection and Amplification Technology (R-SAT), was used (with minor modifications from that previously described U.S. Pat. No. 5,707,798) to screen compounds for efficacy at the 5-HT2A receptor. The RSAT assay was conducted as described herein.
as §1, with “5,707,798, which is incorporated herein by reference in its entirety)” for “5,707,798)”

[1] = read-out: Percent Efficacy, compared to ritanserin
[2] = Table 3, read-out: pIC50 (converted)
[3] = compared to ritanserin, read-out: 5HT2A % inhibition
[4] = Table 6, read-out: 5HT2A pIC50 (converted)

T1 sequence (P28223 whole entry): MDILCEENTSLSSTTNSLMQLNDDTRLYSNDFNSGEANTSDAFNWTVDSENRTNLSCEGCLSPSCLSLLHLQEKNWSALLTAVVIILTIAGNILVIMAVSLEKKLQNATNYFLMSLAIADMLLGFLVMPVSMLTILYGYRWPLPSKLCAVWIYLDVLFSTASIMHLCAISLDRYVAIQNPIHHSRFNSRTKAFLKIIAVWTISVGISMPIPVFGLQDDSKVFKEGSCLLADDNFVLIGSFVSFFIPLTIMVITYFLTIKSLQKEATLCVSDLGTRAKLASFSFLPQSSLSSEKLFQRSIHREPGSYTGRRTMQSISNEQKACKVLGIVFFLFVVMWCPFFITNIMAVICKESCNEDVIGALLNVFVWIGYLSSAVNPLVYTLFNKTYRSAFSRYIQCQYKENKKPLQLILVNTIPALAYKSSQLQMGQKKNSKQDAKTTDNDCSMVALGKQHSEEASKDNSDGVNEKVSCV

SMILES	Emax [1] [%]	IC50 [2] [nM]	other results
Cc1ccc(CN(C(=O)NCc2ccccc2)C2CCN(C)CC2)cc1 [Example 47AKU-22, N-(4-Methylbenzyl)-N-(1-methylpiperidin-4-yl)-N′-benzyl-carbamide]	117	12.6	–
COc1ccc(CC(=O)N(CCCc2ccccc2)C2CCN(C)CC2)cc1 [Example 50ELH65, 2-(4-Methoxyphenyl)-N-(3-phenyl-1-propyl)-N-(1-methylpiperidin-4-yl)acetamide]	92	12.6	–
COc1ccc(CC(=O)N(Cc2ccc(C)cc2)C2CCN(CCCn3c(=O)[nH]c4ccccc43)CC2)cc1 [Example 50ELH89, 2-(4-Methoxyphenyl)-N-(4-methylbenzyl)-N-(1-(3-(1,3-dihydro-2H-benzimidazol-2-one-1-yl)propyl)piperidine-4-yl)acetamide]	–	–	Emax (read-out: Percent Efficacy): 111%; IC50 (pIC50, Table 3): 0.2 nM
COc1ccc(CC(=O)N(CCc2cccc(Cl)c2)C2CCN(C)CC2)cc1 [Example 50ELH93E, 2-(4-Methoxyphenyl)-N-[2-(3-chlorophenyl)ethyl]-N-(1-methylpiperidin-4-yl)acetamide]	72	7.94	–
Cc1ccc(CC(=O)N(Cc2ccc(C)cc2)C2CCN(C)CC2)cc1 [Example 57MBT62B, N-((4-methylphenyl)methyl)-N-(1-methylpiperidin-4-yl)-2-(4-methylphenyl)ace tamide hydrochloride]	–	12.6	Emax (read-out: Percent Efficacy): 119%
Cc1ccc(CN(C(=O)Cc2ccc(Br)cc2)C2CCN(C)CC2)cc1 [Example 57MBT70-1D, N-((4-methylphenyl)methyl)-N-(1-methylpiperidin-4-yl)-2-(4-bromophenyl)acetamide hydrochloride]	–	12.6	Emax (read-out: Percent Efficacy): 120%
Cc1ccc(CN(C(=O)Cc2ccc(I)cc2)C2CCN(C)CC2)cc1 [Example 57MBT70-2D, N-((4-methylphenyl)methyl)-N-(1-methylpiperidin-4-yl)-2-(4-iodophenyl)acetamide hydrochloride]	–	6.31	Emax (read-out: Percent Efficacy): 105%
Cc1ccc(CN(C(=O)Cc2ccc(C(C)C)cc2)C2CCN(C)CC2)cc1 [Example 57MBT70-3D, N-((4-methylphenyl)methyl)-N-(1-methylpiperidin-4-yl)-2-(4-(2-propyl)phenylacetamide hydrochloride]	87	–	IC50 (pIC50, Table 3): 1.26 nM
Cc1ccc(CN(C(=O)Cc2ccc(OC(F)(F)F)cc2)C2CCN(C)CC2)cc1 [Example 57MBT70-4D, N-((4-methylphenyl)methyl)-N-(1-methylpiperidin-4-yl)-2-(4-trifluoromethoxyphenyl)acetamide hydrochloride]	–	3.16	Emax (read-out: Percent Efficacy): 98%
COc1ccc(CC(=O)N(Cc2ccc(C)cc2)C2CCN(C)CC2)cc1C [Example 57MBT70-8D, N-((4-methylphenyl)methyl)-N-(1-methylpiperidin-4-yl)-2-(4-methoxy-3-methylphenyl)acetamide hydrochloride]	–	20	Emax (read-out: Percent Efficacy): 119%
COc1ccc(CNC(=O)N(Cc2ccc(C)cc2)C2CCN(C(C)(C)C)CC2)cc1 [Example 58AKU-3, N-(4-Methylbenzyl)-N-(1-t-butylpiperidin-4-yl)-N′-(4-methoxybenzyl)carbamide]	111	7.94	–
CCCCOc1ccc(CC(=O)N(Cc2ccc(C)cc2)C2CCN(C)CC2)cc1 [Example 58AKU-5, 2-(4-Butoxyphenyl)-N-(4-methylbenzyl)-N-(1-methylpiperidin-4-yl)acetamide]	99	0.316	–
COc1ccc(CC(=O)N(Cc2ccc(C)cc2)C2CCN(Cc3csc(C)n3)CC2)cc1 [Example 63ELH1A, 2-(4-Methoxyphenyl)-N-(4-methylbenzyl)-N-[1-(2-methylthiazol-4-ylmethyl)piperidin-4-yl]acetamide]	–	–	Emax (read-out: Percent Efficacy): 104%; IC50 (pIC50, Table 3): 5.01 nM
CCOc1ccc(CC(=O)N(CCc2ccc(F)cc2)C2CCN(C)CC2)cc1 [Example 63ELH20, 2-(4-ethoxyphenyl)-N-[2-(4-fluorophenyl)ethyl]-N-(1-methylpiperidin-4-yl)acetamide]	95	1	–
Cc1ccc(CC2N(Cc3ccc(OC(F)(F)F)cc3)C(=O)OC23CCN(C)CC3)cc1 (stereo not shown) [Example 69NLS21, 8-Methyl-4-(4-methylbenzyl)-3-(4-trifluoromethoxybenzyl)-1-oxa-3,8-diaza-spiro[4.5]decan-2-one, hydrochloride]	–	–	Emax [3]: 83%; IC50 [4]: 0.794 nM
COc1ccc(CN2C(=O)OC3(CCN(C)CC3)C2Cc2ccc(C)cc2)cc1 (stereo not shown) [Example 69NLS35, 3-(4-Methoxybenzyl)-8-methyl-4-(4-methylbenzyl)-1-oxa-3,8-diaza-spiro[4.5]decan-2-one, hydrochloride]	–	–	Emax [3]: 103%; IC50 [4]: 0.251 nM

Continued, in another order:

Emax [1] [%]	IC50 [2] [nM]	SMILES	other results
112	3.16	COc1ccc(CNC(=O)N(Cc2ccc(C)cc2)C2CCN(C)CC2)cc1 [Example 47AKU-44, N-(4-Methylbenzyl)-N-(1-methylpiperidin-4-yl)-N′-(4-methoxybenzyl)-carbamide]	–
129	15.8	COc1ccc(CC(=O)N(Cc2ccc(F)cc2)C2CCN(C)CC2)cc1 [Example 50ELH8, 2-(4-Methoxyphenyl)-N-(4-fluorobenzyl)-N-(1-methylpiperidin-4-yl)acetamide]	–
96	3.98	COc1ccc(CC(=O)N(CCc2ccc(C)cc2)C2CCN(C)CC2)cc1 [Example 50ELH68, 2-(4-Methoxyphenyl)-N-[2-(4-methylphenyl)ethyl)-N-(1-methylpiperidin-4-yl)acetamide]	–
106	2	COc1ccc(CC(=O)N(CCc2ccc(F)cc2)C2CCN(C)CC2)cc1 [Example 50ELH93A, 2-(4-Methoxyphenyl)-N-(2-4-(fluorophenyl)ethyl)-N-(1-methylpiperidin-4-yl)acetamide]	–
119	10	COc1ccc(CCN(C(=O)Cc2ccc(OC)cc2)C2CCN(C)CC2)cc1 [Example 50ELH95B, 2-(4-Methoxyphenyl)-N-[2-(4-methoxyphenyl)ethyl]-N-(1-methylpiperidin-4-yl)acetamide]	–
75	20	COc1ccc(CC(=O)N(Cc2ccc(C)cc2)C2CCN(C)CC2)cc1O [Example 57MBT12B, N-((4-methylphenyl)methyl)-N-(1-methylpiperidin-4-yl)-2-(3-hydroxy-4-methoxyphenyl)acetamide]	–
95	12.6	COc1ccc(CC(=O)N(Cc2ccc(C)c(O)c2)C2CCN(C)CC2)cc1 [Example 57MBT54B, N-((3-hydroxy-4-methylphenyl)methyl)-N-(1-methylpiperidin-4-yl)-2-(4-methoxyphenyl)acetamide]	–
110	0.251	CCOc1ccc(CC(=O)N(Cc2ccc(C)cc2)C2CCN(C)CC2)cc1 [Example 58AKU-4, 2-(4-Ethoxyphenyl)-N-(4-methylbenzyl)-N-(1-methylpiperidin-4-yl)acetamide]	–
101	0.158	Cc1ccc(CN(C(=O)Cc2ccc(OC(C)C)cc2)C2CCN(C)CC2)cc1 [Example 58AKU-6, 2-(4-i-Propoxyphenyl)-N-(4-methylbenzyl)-N-(1-methylpiperidin-4-yl)acetamide]	–
100	3.16	CCOc1ccc(CC(=O)N(Cc2ccc(F)cc2)C2CCN(C)CC2)cc1 [Example 63ELH21, 2-(4-Ethoxyphenyl)-N-(4-fluorobenzyl)-N-(1-methylpiperidin-4-yl)acetamide]	–
